The assay addresses Histone deacetylase 8 (Homo sapiens) (UniProt Q9BY41). The experiment in a line: Inhibition of human recombinant HDAC8 using RHKAcKAc-AMC substrate by fluorescence based assay.

From BindingDB's records for doi:10.1021/acs.jmedchem.9b01152 (Universidad De Navarra, 2020) come the findings set out here.

Sequence of Histone deacetylase 8 (Homo sapiens) (Q9BY41 whole entry, looked up): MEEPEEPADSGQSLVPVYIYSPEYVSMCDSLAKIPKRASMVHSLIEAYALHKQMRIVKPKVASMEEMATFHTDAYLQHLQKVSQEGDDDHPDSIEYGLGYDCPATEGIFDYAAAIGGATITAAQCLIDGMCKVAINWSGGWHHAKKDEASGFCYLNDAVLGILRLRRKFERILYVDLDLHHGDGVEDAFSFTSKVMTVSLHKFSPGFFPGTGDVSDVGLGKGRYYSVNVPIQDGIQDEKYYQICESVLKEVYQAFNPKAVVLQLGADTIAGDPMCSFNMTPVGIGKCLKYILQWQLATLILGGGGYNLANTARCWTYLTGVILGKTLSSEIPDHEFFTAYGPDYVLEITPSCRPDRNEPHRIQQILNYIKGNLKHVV

As usually defined, the IC50 is the concentration that inhibits the measured activity by half. Turning to `O=c1c2ccccc2[se]n1-c1ccccc1` [2-Phenyl-benzo[d]isoselenazol-3-one], the IC50 came out at 1200 nM.
